# Like-named read-outs stand apart in the source and are kept apart here.
# What was measured:
# JJ5 Breast Cancer cells [1] = conditions: cultured 4 days
# Experimental: The number of cells seeded was varied from 3×10^4 to 3×10^6 cells to obtain approximately 350 viable colonies/dish taking into account the plating efficiency and the expected level of cytotoxicity. Control dishes contained JJ5 breast cancer cells which were incubated with normal saline. Growth medium was added and the cells were cultured at 37° C./5% CO2 for 4 days. The growth medium was removed and the colonies were stained with methylene blue (1% in a 1:1 mixture of ethanol and water) then washed twice. The number of colonies per dish was counted using a manual colony counter (Manostat Corp). The plating efficiency was calculated by dividing the number of colonies observed by the number of cells seeded in each dish.
# JJ5 Breast Cancer cells [2] = experiment: Binding of EGF-111In-labeled transferrin composition to breast cancer cells; design: species or system human
# Source text: For the normal breast cell line HBL-100, 8000 EGFR/cell has been reported. The expression of EGFR in breast cancer cell lines has a reported range of 800 EGFR/cell for MCF-7 cells to 10^6 EGFR/cell for MDA-MB-468 cells. […] Utilizing the Auger electron emitter ^111In was used in the initial experiments to illustrate the utility of the invention using EGF-^111In-labeled transferrin compositions. […] The cells were transferred to a centrifuge tube and centrifuged. The cell pellet was separated from the supernatant and counted in a g-scintillation counter to determine bound (B) and free (F) radioactivity. Non-specific binding was determined by conducting the assay in 100 nM hEGF. […] Internalized fraction was measured by determining the proportion of radioactivity which could not be displaced from the cell surface by 100 nM hEGF. Cell-associated binding (surface-binding and intracellular accumulation) was expressed as a percentage of medium radioactivity bound per mg of cell study protein. […] EGF-^111In-labeled transferrin composition was rapidly bound by the breast cancer cells and retained for at least 24 hours. Over a 24 hour period at 37° C., <8% was lost from the cells in vitro.
# JJ5 Breast Cancer cells [3] = experiment: Growth inhibition assay of EGF-111In-labeled transferrin composition against JJ5 breast cancer cells; type: cell-based, human; conditions: cultured 4 days
# Experimental: JJ5 breast cancer cells (prepared from BCBM JJ5) expressing approximately 10^6 epidermal growth factor receptors/cell were incubated with EGF-^111In-labeled transferrin composition, unlabeled hEGF or ^111In-oxine, centrifuged to remove free ligand, then assayed and seeded (10^6 cells/dish) into 35 mm culture dishes.
# JJ5 Breast Cancer cells [4] = experiment: Cytotoxicity (colony-forming) assay of EGF-111In-labeled transferrin composition against JJ5 breast cancer cells; type: cell-based, human; conditions: 14 days
# Experimental: JJ5 breast cancer cells were incubated with increasing amounts EGF-^111In-labeled transferrin composition or ^111In-oxine, centrifuged to remove free ligand, assayed and then seeded into 50 mm culture dishes. […] The growth medium was removed and the colonies were stained with methylene blue (1% in a 1:1 mixture of ethanol and water) then washed twice.
# Using a colony-forming assay, the radiotoxicity of internalization for JJ5 breast cancer cells was evaluated.
compound,measurement,setting,value
COc1cccc2c1C(=O)c1c(O)c3c(c(O)c1C2=O)C[C@@](O)(C(=O)CO)C[C@@H]3O[C@H]1C[C@H](N)[C@H](O)[C@H](C)O1 [Doxorubicin],growth inhibition of the JJ5 cells compared to the medium control,JJ5 Breast Cancer cells [1],95%
EGF-^111In-labeled transferrin composition,time retained by the breast cancer cells,JJ5 Breast Cancer cells [2]; 37° C.,at least 24 hours
same,affinity constant for binding to JJ5 cells,"JJ5 Breast Cancer cells [2]; 37° C., 30 minutes, non-specific binding in 100 nM hEGF",8e+08 L/mol
same,number of binding sites,JJ5 Breast Cancer cells [2]; JJ5 cells,2.7×10^6
same,111In radioactivity lost from the cells in vitro,JJ5 Breast Cancer cells [2]; over a 24 hour period at 37° C.,< 8%
same,growth inhibition of the JJ5 cells compared to the medium control,JJ5 Breast Cancer cells [3]; 3.4 pCi/cell,83%
same,reduction in cell survival,JJ5 Breast Cancer cells [4]; 8 pCi/cell,99%
"[In+3].[O-]c1cccc2cccnc12.[O-]c1cccc2cccnc12.[O-]c1cccc2cccnc12 [^111In-oxine, reference compound]",growth inhibition of the JJ5 cells compared to the medium control,JJ5 Breast Cancer cells [3]; 3.5 pCi/cell,91%
same,cell killing,JJ5 Breast Cancer cells [4]; at <6 pCi/cell,greater than 99%

# Reference: patent US20040219102A1, “Compositions for drug delivery” (priority 2003, published 2004)
